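All cell lines were grown in 96-well plates and treated with compound for 48 hours. At the TGI there is no net growth.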
Key:
Test in all cases: DTP human tumour cell line panel, 48 h
OVCAR-8 ovarian = tested on: OVCAR-8 ovarian
SK-MEL-2 melanoma = tested on: SK-MEL-2 melanoma
HOP-62 NSCLC = tested on: HOP-62 NSCLC
SF-268 CNS = tested on: SF-268 CNS
EKVX NSCLC = tested on: EKVX NSCLC
HCC-2998 colon = tested on: HCC-2998 colon
COLO 205 colon = tested on: COLO 205 colon
SF-539 CNS = tested on: SF-539 CNS
M14 melanoma = tested on: M14 melanoma
ACHN renal = tested on: ACHN renal
NCI-H460 lung = tested on: NCI-H460 lung
MDA-MB-435 = tested on: MDA-MB-435
HCT-15 colon = tested on: HCT-15 colon
A549 NSCLC = tested on: A549 NSCLC
CCRF-CEM leukemia = tested on: CCRF-CEM leukemia
SNB-75 CNS = tested on: SNB-75 CNS
NCI-H522 lung = tested on: NCI-H522 lung
SK-MEL-28 melanoma = tested on: SK-MEL-28 melanoma
TK-10 renal = tested on: TK-10 renal
UACC-257 melanoma = tested on: UACC-257 melanoma
786-0 renal = tested on: 786-0 renal
SNB-19 CNS = tested on: SNB-19 CNS
IGROV1 ovarian = tested on: IGROV1 ovarian
RPMI-8226 leukemia = tested on: RPMI-8226 leukemia
UO-31 renal = tested on: UO-31 renal
SW-620 colon = tested on: SW-620 colon
SK-OV-3 ovarian = tested on: SK-OV-3 ovarian
NCI-H23 lung = tested on: NCI-H23 lung
MALME-3M melanoma = tested on: MALME-3M melanoma
LOX IMVI melanoma = tested on: LOX IMVI melanoma
RXF 393 renal = tested on: RXF 393 renal
MDA-MB-231 breast = tested on: MDA-MB-231 breast
OVCAR-4 ovarian = tested on: OVCAR-4 ovarian
MDA-N = tested on: MDA-N
T-47D breast = tested on: T-47D breast
SF-295 CNS = tested on: SF-295 CNS
KM12 colon = tested on: KM12 colon
MCF7 breast = tested on: MCF7 breast
OVCAR-5 ovarian = tested on: OVCAR-5 ovarian
OVCAR-3 ovarian = tested on: OVCAR-3 ovarian
U251 CNS = tested on: U251 CNS
CAKI-1 renal = tested on: CAKI-1 renal
SK-MEL-5 melanoma = tested on: SK-MEL-5 melanoma
NCI/ADR-RES ovarian = tested on: NCI/ADR-RES ovarian
NCI-H226 lung = tested on: NCI-H226 lung
A498 renal = tested on: A498 renal
SN12C renal = tested on: SN12C renal
HCT-116 colon = tested on: HCT-116 colon
BT-549 breast = tested on: BT-549 breast
PC-3 prostate = tested on: PC-3 prostate
HT29 colon = tested on: HT29 colon
DU-145 prostate = tested on: DU-145 prostate
MOLT-4 leukemia = tested on: MOLT-4 leukemia
K-562 leukemia = tested on: K-562 leukemia
UACC-62 melanoma = tested on: UACC-62 melanoma
SR leukemia = tested on: SR leukemia
HS 578T breast = tested on: HS 578T breast
HOP-92 NSCLC = tested on: HOP-92 NSCLC
HL-60(TB) leukemia = tested on: HL-60(TB) leukemia

N#Cc1c(-c2ccccc2)c(N=Nc2ccc(Cl)cc2)c(=O)n2c1[nH]c1ccccc12
TGI (OVCAR-8 ovarian): > 100 µM | TGI (SK-MEL-2 melanoma): > 100 µM | TGI (HOP-62 NSCLC): > 100 µM | TGI (SF-268 CNS): > 100 µM | TGI (EKVX NSCLC): > 100 µM | TGI (HCC-2998 colon): > 100 µM | TGI (COLO 205 colon): > 100 µM | TGI (SF-539 CNS): > 100 µM | TGI (M14 melanoma): > 100 µM | TGI (ACHN renal): > 100 µM | TGI (NCI-H460 lung): > 100 µM | TGI (MDA-MB-435): > 100 µM | TGI (HCT-15 colon): > 100 µM | TGI (A549 NSCLC): > 100 µM | TGI (CCRF-CEM leukemia): > 100 µM | TGI (SNB-75 CNS): > 100 µM | TGI (NCI-H522 lung): > 100 µM | TGI (SK-MEL-28 melanoma): > 100 µM | TGI (TK-10 renal): > 100 µM | TGI (UACC-257 melanoma): > 100 µM | TGI (786-0 renal): 73.2 µM | TGI (SNB-19 CNS): > 100 µM | TGI (IGROV1 ovarian): > 100 µM | TGI (RPMI-8226 leukemia): > 100 µM | TGI (UO-31 renal): > 100 µM | TGI (SW-620 colon): > 100 µM | TGI (SK-OV-3 ovarian): > 100 µM | TGI (NCI-H23 lung): > 100 µM | TGI (MALME-3M melanoma): > 100 µM | TGI (LOX IMVI melanoma): > 100 µM | TGI (RXF 393 renal): > 100 µM | TGI (MDA-MB-231 breast): > 100 µM | TGI (OVCAR-4 ovarian): 85.6 µM | TGI (MDA-N): > 100 µM | TGI (T-47D breast): > 100 µM | TGI (SF-295 CNS): > 100 µM | TGI (KM12 colon): > 100 µM | TGI (MCF7 breast): > 100 µM | TGI (OVCAR-5 ovarian): > 100 µM | TGI (OVCAR-3 ovarian): > 100 µM | TGI (U251 CNS): > 100 µM | TGI (CAKI-1 renal): > 100 µM | TGI (SK-MEL-5 melanoma): > 100 µM | TGI (NCI/ADR-RES ovarian): > 100 µM | TGI (NCI-H226 lung): > 100 µM | TGI (A498 renal): > 100 µM | TGI (SN12C renal): > 100 µM | TGI (HCT-116 colon): > 100 µM | TGI (BT-549 breast): > 100 µM | TGI (PC-3 prostate): > 100 µM

CCCCCCCCCCCCCCCCOC[C@@H](COC(c1ccccc1)(c1ccccc1)c1ccccc1)O[P+](=S)OC (stereo partly specified)
TGI (OVCAR-8 ovarian): 48.9 µM | TGI (HT29 colon): 35.2 µM | TGI (DU-145 prostate): 30.6 µM | TGI (SK-MEL-2 melanoma): 33.3 µM | TGI (SF-268 CNS): 28.6 µM | TGI (EKVX NSCLC): 31.5 µM | TGI (COLO 205 colon): 38.6 µM | TGI (SF-539 CNS): 9.45 µM | TGI (MOLT-4 leukemia): 53.1 µM | TGI (M14 melanoma): 14.5 µM | TGI (ACHN renal): 29 µM | TGI (NCI-H460 lung): 5.8 µM | TGI (MDA-MB-435): 5.5 µM | TGI (HCT-15 colon): 22.4 µM | TGI (A549 NSCLC): 21 µM | TGI (CCRF-CEM leukemia): 30.1 µM | TGI (SNB-75 CNS): 29.6 µM | TGI (NCI-H522 lung): 27.5 µM | TGI (TK-10 renal): 23.6 µM | TGI (UACC-257 melanoma): 26.5 µM | TGI (786-0 renal): 19.1 µM | TGI (SNB-19 CNS): 21.3 µM | TGI (K-562 leukemia): 41.8 µM | TGI (IGROV1 ovarian): 36 µM | TGI (UACC-62 melanoma): 14.5 µM | TGI (RPMI-8226 leukemia): 14.7 µM | TGI (UO-31 renal): 30.1 µM | TGI (SW-620 colon): 37 µM | TGI (SK-OV-3 ovarian): 19.8 µM | TGI (NCI-H23 lung): 23.7 µM | TGI (SR leukemia): 5.46 µM | TGI (LOX IMVI melanoma): 11.3 µM | TGI (RXF 393 renal): 22.7 µM | TGI (MDA-MB-231 breast): 5.49 µM | TGI (OVCAR-4 ovarian): 22.9 µM | TGI (MDA-N): 5.53 µM | TGI (T-47D breast): 45 µM | TGI (SF-295 CNS): 6.88 µM | TGI (KM12 colon): 19.2 µM | TGI (MCF7 breast): 31 µM | TGI (OVCAR-5 ovarian): 28.7 µM | TGI (OVCAR-3 ovarian): 31.8 µM | TGI (U251 CNS): 17.6 µM | TGI (CAKI-1 renal): 23.8 µM | TGI (SK-MEL-5 melanoma): 22.4 µM | TGI (HS 578T breast): 82.6 µM | TGI (NCI/ADR-RES ovarian): 59.8 µM | TGI (NCI-H226 lung): 42.5 µM | TGI (A498 renal): 26.1 µM | TGI (SN12C renal): 21.8 µM | TGI (HOP-92 NSCLC): 26.2 µM | TGI (HCT-116 colon): 14.1 µM | TGI (BT-549 breast): 16.7 µM | TGI (HL-60(TB) leukemia): 36 µM | TGI (PC-3 prostate): 18.9 µM

COc1c(O)cc2c(c1O)C(=O)/C(=C/c1ccc(O)cc1)CO2
TGI (OVCAR-8 ovarian): 39.6 µM | TGI (HT29 colon): 41.1 µM | TGI (DU-145 prostate): 78.1 µM | TGI (SK-MEL-2 melanoma): > 100 µM | TGI (HOP-62 NSCLC): 76.3 µM | TGI (SF-268 CNS): > 100 µM | TGI (EKVX NSCLC): 71.9 µM | TGI (COLO 205 colon): 32.5 µM | TGI (SF-539 CNS): 48.9 µM | TGI (MOLT-4 leukemia): > 100 µM | TGI (M14 melanoma): 61.1 µM | TGI (ACHN renal): 48.3 µM | TGI (NCI-H460 lung): > 100 µM | TGI (MDA-MB-435): > 100 µM | TGI (HCT-15 colon): 38.2 µM | TGI (A549 NSCLC): > 100 µM | TGI (CCRF-CEM leukemia): 65.3 µM | TGI (SNB-75 CNS): 57 µM | TGI (NCI-H522 lung): 33.8 µM | TGI (SK-MEL-28 melanoma): 35.3 µM | TGI (TK-10 renal): 85 µM | TGI (UACC-257 melanoma): > 100 µM | TGI (786-0 renal): 75.5 µM | TGI (SNB-19 CNS): > 100 µM | TGI (K-562 leukemia): 95.2 µM | TGI (IGROV1 ovarian): 80.8 µM | TGI (UACC-62 melanoma): 40 µM | TGI (RPMI-8226 leukemia): 37.2 µM | TGI (UO-31 renal): 65.1 µM | TGI (SW-620 colon): 83.4 µM | TGI (SK-OV-3 ovarian): 59.3 µM | TGI (NCI-H23 lung): > 100 µM | TGI (SR leukemia): 40.9 µM | TGI (MALME-3M melanoma): 96.4 µM | TGI (LOX IMVI melanoma): 53.1 µM | TGI (RXF 393 renal): > 100 µM | TGI (MDA-MB-231 breast): > 100 µM | TGI (OVCAR-4 ovarian): 60.7 µM | TGI (MDA-N): > 100 µM | TGI (T-47D breast): 94.8 µM | TGI (SF-295 CNS): > 100 µM | TGI (KM12 colon): 34.4 µM | TGI (MCF7 breast): > 100 µM | TGI (OVCAR-5 ovarian): 68.6 µM | TGI (OVCAR-3 ovarian): 55.5 µM | TGI (U251 CNS): > 100 µM | TGI (CAKI-1 renal): 53.9 µM | TGI (SK-MEL-5 melanoma): 59.6 µM | TGI (HS 578T breast): > 100 µM | TGI (NCI/ADR-RES ovarian): 57 µM | TGI (A498 renal): > 100 µM | TGI (SN12C renal): 55.5 µM | TGI (HOP-92 NSCLC): > 100 µM | TGI (BT-549 breast): > 100 µM | TGI (HL-60(TB) leukemia): > 100 µM | TGI (PC-3 prostate): > 100 µM
